Source: US20080160000A1 (priority 2006, published 2008)
Like-named read-outs stand apart in the source and are kept apart here.

Experiments:
Eimeria acervulina = assay: Example 1: chickens infected with Eimeria acervulina, feed test (growth, lesion, OPG, ACI); format: in vivo
Experimental: Seven groups (30 chickens/group) of test chickens (type of chickens: chunky, one week of age, male) were prepared.
The test chickens of the first to seventh groups are bred for 12 days by freely feeding the feeds (Table 4) obtained by adding the ingredients to the basal feed (100 mass %) shown in Table 1. The test chickens of the second to seventh groups excluding the first group were infected with oocysts of coccidial protozoa Eimeria acervulina in a ratio of 5.0×10^4 oocysts/chicken in an oral administration manner on the seventh day after the start of the breeding. Next, after the breeding was finished, the test chickens of the groups were dissected, and degrees of lesions in the duodenums were evaluated according to the following evaluation criteria. In addition, on the dissection day, feces of the groups were sampled, and the number of oocysts per gram of the feces (OPG) was measured. OPG scores were determined by OPG values according to the evaluation criteria as follow.

Eimeria maxima = assay: Example 2: chickens infected with Eimeria maxima, feed test (growth, OPG); format: in vivo
Experimental: Three groups (20 chickens/group) of tested chickens (type of chickens: chunky, neonatal chick, male) were prepared.
The test chickens of the eighth to tenth groups are bred for 28 days by freely feeding the feeds (Table 6) obtained by adding the ingredients to the basal feed (100 mass %) shown in Table 1. The test chickens of all the groups were infected with oocysts of coccidial protozoa Eimeria maxima in a ratio of 1.5×10^4 oocysts/chicken in an oral administration manner on the twenty-first day after the breeding. On each sixth to eighth day after the infection, the feces of the groups were sampled, and the number of oocysts per gram of the feces (OPG) was measured (as a three-day average value).

clostridium perfringens = format: in vivo, chickens; conditions: for Body weight, compared-group comparison / Body weight gain, compared-group comparison / Feed intake, compared-group comparison / Feed conversion ratio, compared-group comparison / Number of clostridium perfringens, compared-group comparison: index, Fifteenth Group = 100

CC[C@@H](C(=O)[C@@H](C)[C@@H](O)[C@H](C)[C@@H]1O[C@@H]([C@@H](CC)C(=O)O)CC[C@@H]1C)[C@H]1O[C@]2(C=C[C@@H](O)[C@]3(CC[C@@](C)([C@H]4CC[C@](O)(CC)[C@H](C)O4)O3)O2)[C@H](C)C[C@@H]1C [Third group, Salinomycine]
Average OPG score in feces D (Eimeria acervulina; 0 to 40 points from OPG values per Table 3, average of three tested bodies in each group): 33.3 | ACI (anticoccidial indces) (Eimeria acervulina; ACI = (A + B) − (10C + D)): 126 | Relative ratio weight gain/initial weight (compared with First group) A (Eimeria acervulina; First group (non-infected basal feed) = 100): 95.0% | Average final body weight (Eimeria acervulina; after 12 days breeding, infected on day 7 with 5.0×10^4 oocysts/chicken): 643 g | Feed conversion ratio (Eimeria acervulina; in vivo): 1.32 | Feed intake (Eimeria acervulina; in vivo): 318 g/chicken | Survival ratio B (Eimeria acervulina; in vivo): 100.0% | Weight gain/initial weight ratio (Eimeria acervulina; in vivo): 60.1% | Body weight gain (Eimeria acervulina; initial to final weight): 242 g/chicken | Average lesion score C (Eimeria acervulina; lesion in duodenum, 0 to 4 points per Table 2): 3.6 | Body weight gain (Eimeria maxima; 28 days): 1018 g/chicken | Feed conversion ratio (Eimeria maxima; 28 days): 1.50 | Feed intake (Eimeria maxima; 28 days): 1525 g/chicken | Final body weight (Eimeria maxima; 28 days breeding, infected day 21 with 1.5×10^4 oocysts/chicken): 1054 g/chicken | Maxima OPG (Eimeria maxima; average on the 6 to 8 days after infection): 3.1 10,000 oocysts/g of feces | Growth ratio (Eimeria maxima; in vivo): 100(100) % | Final body weight, compared-group comparison (Eimeria maxima; index, Eighth Group (basal feed) = 100): 117 | Body weight gain, compared-group comparison (Eimeria maxima; index, Eighth Group = 100): 117 | Feed conversion ratio, compared-group comparison (Eimeria maxima; index, Eighth Group = 100): 94 | Feed intake, compared-group comparison (Eimeria maxima; index, Eighth Group = 100): 110 | Growth ratio, compared-group comparison (Eimeria maxima; index, Eighth Group = 100): 100(100) | Maxima OPG, compared-group comparison (Eimeria maxima; index, Eighth Group = 100): 18

enramycin [Sixteenth Group]
Body weight gain (clostridium perfringens; 1 week): 96 g/chicken | Feed intake (clostridium perfringens; 1 week): 118 g/chicken | Body weight (clostridium perfringens; 1 week of age, basal feed with 30% rye): 136 g/chicken | Body weight, compared-group comparison (clostridium perfringens; 1 week of age): 114 | Body weight gain, compared-group comparison (clostridium perfringens; 1 week): 121 | Feed intake, compared-group comparison (clostridium perfringens; 1 week): 107 | Body weight gain (clostridium perfringens; 2 weeks): 220 g/chicken | Feed intake (clostridium perfringens; 2 weeks): 323 g/chicken | Body weight (clostridium perfringens; 2 weeks of age): 356 g/chicken | Body weight, compared-group comparison (clostridium perfringens; 2 weeks of age): 124 | Body weight gain, compared-group comparison (clostridium perfringens; 2 weeks): 132 | Feed intake, compared-group comparison (clostridium perfringens; 2 weeks): 140 | Body weight gain (clostridium perfringens; 3 weeks): 345 g/chicken | Feed intake (clostridium perfringens; 3 weeks): 510 g/chicken | Body weight (clostridium perfringens; 3 weeks of age): 700 g/chicken | Body weight, compared-group comparison (clostridium perfringens; 3 weeks of age): 130 | Body weight gain, compared-group comparison (clostridium perfringens; 3 weeks): 135 | Feed intake, compared-group comparison (clostridium perfringens; 3 weeks): 124 | Feed conversion ratio (clostridium perfringens; First week): 1.23 | Number of clostridium perfringens (clostridium perfringens; First week, cloacal swab): 2.0 LogCFU/g | Feed conversion ratio, compared-group comparison (clostridium perfringens; First week): 89 | Number of clostridium perfringens, compared-group comparison (clostridium perfringens; First week): 34 | Feed conversion ratio (clostridium perfringens; Second week): 1.47 | Number of clostridium perfringens (clostridium perfringens; Second week, cloacal swab): 2.0 LogCFU/g | Feed conversion ratio, compared-group comparison (clostridium perfringens; Second week): 106 | Number of clostridium perfringens, compared-group comparison (clostridium perfringens; Second week): 47 | Feed conversion ratio (clostridium perfringens; Third week): 1.48 | Number of clostridium perfringens (clostridium perfringens; Third week, cloacal swab): 2.0 LogCFU/g | Feed conversion ratio, compared-group comparison (clostridium perfringens; Third week): 91 | Number of clostridium perfringens, compared-group comparison (clostridium perfringens; Third week): 41 | Feed conversion ratio (clostridium perfringens; Total): 1.44 | Body weight gain (clostridium perfringens; Total (21 days)): 660 g/chicken | Feed intake (clostridium perfringens; Total (21 days)): 950 g/chicken | Number of clostridium perfringens (clostridium perfringens; Total (no unit printed in this row; weekly rows in LogCFU/g)): 2.0 | Body weight gain, compared-group comparison (clostridium perfringens; Total): 132 | Feed conversion ratio, compared-group comparison (clostridium perfringens; Total): 96 | Feed intake, compared-group comparison (clostridium perfringens; Total): 126 | Number of clostridium perfringens, compared-group comparison (clostridium perfringens; Total): 40
